Assay results published in patent US12516022B2, “Derivatives of aryl hydrocarbon receptor agonists” (AZORA THERAPEUTICS, INC., priority 2021, dated 2026).

What was measured:
[1] = Indirubin solubility in biorelevant media (FaSSIF, FaSSGF), HPLC; format: physicochemical; conditions: for Solubility in the simulated fluids: FaSSGF and FaSSIF
Protocol: Biorelevant media was prepared as per the supplier's (Biorelevant) method, using FaSSIF/FeSSIF/FaSSGF powders. In brief, FaSSGF media was prepared using 0.06 g/L FaSSIF/FeSSIF/FaSSGF powder in 2 g/L NaCl solution, pH adjusted to 1.6 with 1N HCl. FaSSIF media was prepared with 2.24 g/L FaSSIF/FeSSIF/FaSSGF powder in sodium phosphate buffer, pH adjusted to 6.5 with 1N NaOH. (Sodium phosphate buffer prepared as a 0.42 g/L NaOH, 3.95 g/L NaH2PO4·H2O, 6.19 g/L NaCl solution).
Solubility assessments were performed as follows. An individual flask was prepared for each media and time point. Flasks were placed in a shaking water bath kept at 37° C. Flasks were removed from the bath at specified time points of 1 hour, 4 hours and 24 hours, allowed to cool, and an aliquot taken and filtered.

AhR = molecular target: T1, AhR (Rattus norvegicus, UniProt P41738); experiment: AhR/arnt-luciferase reporter assay in rat H4IIE cells
T1 sequence (P41738 10-853): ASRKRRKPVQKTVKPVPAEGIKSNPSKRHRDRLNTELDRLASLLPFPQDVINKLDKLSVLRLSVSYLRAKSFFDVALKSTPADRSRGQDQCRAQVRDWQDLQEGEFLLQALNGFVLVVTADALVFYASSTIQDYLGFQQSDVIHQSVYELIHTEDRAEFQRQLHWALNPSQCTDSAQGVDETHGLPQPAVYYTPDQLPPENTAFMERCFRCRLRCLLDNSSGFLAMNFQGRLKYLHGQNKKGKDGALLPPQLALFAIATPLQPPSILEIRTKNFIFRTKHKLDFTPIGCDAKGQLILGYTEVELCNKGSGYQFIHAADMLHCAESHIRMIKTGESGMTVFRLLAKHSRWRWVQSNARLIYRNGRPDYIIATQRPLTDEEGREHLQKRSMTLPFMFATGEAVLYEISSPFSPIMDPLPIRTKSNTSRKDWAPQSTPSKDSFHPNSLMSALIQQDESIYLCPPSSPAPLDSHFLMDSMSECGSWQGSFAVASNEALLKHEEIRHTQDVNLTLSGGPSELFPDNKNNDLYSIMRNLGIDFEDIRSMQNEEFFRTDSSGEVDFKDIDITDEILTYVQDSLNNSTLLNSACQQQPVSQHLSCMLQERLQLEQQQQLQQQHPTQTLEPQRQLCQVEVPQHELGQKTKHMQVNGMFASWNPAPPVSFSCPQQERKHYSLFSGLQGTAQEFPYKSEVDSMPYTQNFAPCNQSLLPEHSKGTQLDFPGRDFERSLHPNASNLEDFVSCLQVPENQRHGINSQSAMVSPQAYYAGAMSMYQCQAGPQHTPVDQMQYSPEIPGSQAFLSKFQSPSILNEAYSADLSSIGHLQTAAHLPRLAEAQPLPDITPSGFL
Protocol: TCDD and MeBio were included in the study as positive controls. These were added into cell culture media containing charcoal-stripped fetal bovine serum to produce a 2× stock and then added to the reporter cells. The reporter cells were human Huh7 cells or Rat H4IIE cell lines with the native AhR and an AhR/arnt-Luciferase reporter vector. The final concentration of DM50 was 0.1%. Cells were incubated for 22 hours at 37° C. prior to addition of the luciferase detection reagent and measurement of activity in relative luminescence units.

[2] = Stability of indirubin prodrugs in simulated fluids (FaSSIF, FaSSGF), 24 h at 37° C., UPLC-MS; format: physicochemical
Protocol: 10.41 g fasted state simulated intestinal fluid (FaSSIF) buffer concentrate was dissolved in 240.3 g deionized water and 560 mg FaSSIF powder added. The mixture was stirred until complete dissolution observed. The test compound (approx. 1-3 mg) was placed in 5.00 mL of FaSSIF solution. Samples of the solution with the test compound were taken after 24 hours in at 37° C. (oven-controlled temperature).
36.78 g fasted state simulated gastric fluid (FaSSGF) buffer concentrate was dissolved in 961.9 g deionized water and 60 mg FaSSGF powder added. The mixture was stirred until complete dissolution observed. The test compound (approx. 1-3 mg) was placed in 5.00 mL of FaSSGF solution. Samples of the solution with the test compound were taken after 24 hours in at 37° C. (oven-controlled temperature).
UPLC-MS analysis of the samples taken at 24 hours was carried out on a Waters Acquity UPLC system consisting of an Acquity I-Class Sample Manager-FL, Acquity I-Class Binary Solvent Manager and an Acquity UPLC Column Manager. UV detection was afforded using an Acquity UPLC PDA detector (scanning from 210 to 400 nm), whilst mass detection was achieved using an Acquity QDa detector (mass scanning from 100-1250 Da; positive and negative modes simultaneously), and ELS detection was achieved using an Acquity UPLC ELS Detector. A Waters Acquity UPLC BEH C18 column (2.1 Å˜50 mm, […]) was used to separate the analytes. Samples were prepared by dissolution (with or without sonication) into 1 mL of 50% (v/v) MeCN in water. The resulting solutions were then filtered through a […] syringe filter before submitting for analysis. All of the solvents, including formic acid and 36% ammonia solution, were purchased as the HPLC grade.

[3] = tested on: dextran sodium sulfate (DSS)-induced acute colitis; experiment: DSS-induced acute colitis mouse model, exemplary compounds (Example 7); format: in vivo; conditions: mice, oral gavage twice daily for 9 days, indirubin molar equivalent of 15 mg/kg
Protocol: Eight week old female C57 BL/6J mice, around 20 g body weight purchased from Charles River Laboratories were bred in specific pathogen free IVC cages (4 mice in each cage) in a temperature controlled (20±2° C.) room with a 12 hour light-dark cycle. Chow pellets and tap water were available ad libitum. All experimental protocols were approved by the Institutional Animal Care and Use Committee. The mice were acclimated at the animal facility for at least of three days before the experiments. To generate dextran sodium sulfate (DSS)-induced acute colitis, the mice were induced with 3% DSS (molecular weight 36,000-50,000; […] DSS solution was freshly prepared and changed daily. These mice were euthanized on day 8 (9th day of the experiment). Body weight and disease activity index (DAI) soring were recorded daily to assess the colitis. DAI score was the sum of the weight loss score, stool score and bleeding subscores. A blinded scoring system was employed to assess the colitis. The DAI scorer blinded to the group information and animal ID was responsible for the stool consistency and bleeding evaluations. DAI scoring standards will be followed as below. A study was conducted as in set forth in Example 6. […] Mice in the vehicle group were given only 200 μL distilled water by gavage.

[4] = Indirubin levels in plasma, colon and lung of colitis mice, LC-MS/MS (Example 8); format: in vivo; conditions: six hours after the last oral dose, indirubin molar equivalent of 15 mg/kg twice daily
Protocol: Five animals from each group in Example 7 were euthanized six hours after the last oral dose. At this time plasma, lung and colon was harvested. Colon was washed three times in cold phosphate buffered saline (PBS) to remove colon contents.
Indirubin was detected utilizing LC-MS/MS.
To prepare samples, an aliquot of 20 μL unknown sample, calibration standard, quality control, single blank and double blank samples were added to the 96-well plate. Samples (except the double blank) for plasma were quenched with 100 μL internal standard respectively (double blank sample was quenched with 100 μL acetonitrile (ACN)), samples (except the double blank) for liver, lung and colon were quenched with 80 μL internal standard respectively (double blank sample was quenched with 80 μL ACN), and then the mixture was vortex-mixed for 5 minutes at 800 rpm and centrifuged for 15 minutes at 3220 g (4000 rpm), at 4° C. 50 μL supernatant was transfer to another clean 96-well plate and the supernatant were directly injected for LC-MS/MS analysis.

| Compound | Fraction (percent) of indirubin ([2]; FaSSGF 37° C. 24 h) [%] | Fraction (percent) of starting material (SM) ([2]; FaSSGF 37° C. 24 h) [%] | Fraction (percent) of indirubin ([2]; FaSSIF 37° C. 24 h) [%] | Fraction (percent) of starting material (SM) ([2]; FaSSIF 37° C. 24 h) [%] | other results |
| --- | --- | --- | --- | --- | --- |
| CN1CCN(CN2C(=O)/C(=C3\Nc4ccccc4C3=O)c3ccccc32)CC1 [Compound 10] | – | – | – | – | Solubility in the simulated fluids [1]: soluble in the simulated fluids |
| O=C1Nc2ccccc2/C1=C1/Nc2ccccc2C1=O [indirubin, reference compound] | – | – | – | – | EC50 (AhR): ~654 nM |
| CCN(CC)CN1C(=O)/C(=C2\Nc3ccccc3C2=O)c2ccccc21 [Compound 9] | – | – | – | – | Solubility in the simulated fluids [1]: soluble in the simulated fluids |
| O=C1/C(=C2/C(=O)N(CS(=O)(=O)c3ccccc3)c3ccccc32)Nc2ccccc21 | 0 | 100 | 0 | 100 | – |
| CN1CCN(CN2C(=O)/C(=C3\Nc4ccccc4C3=O)c3ccccc32)CC1 [drawing 222] | – | – | 19 | 50 | – |
| O=C1/C(=C2/C(=O)N(CSc3ccccc3)c3ccccc32)Nc2ccccc21 | 0 | 100 | 0 | 100 | – |
| O=C1/C(=C2/C(=O)N(C(=O)N3CCOCC3)c3ccccc32)Nc2ccccc21 | 0 | 100 | 0 | 100 | – |
| O=C1/C(=C2/C(=O)N(COS(=O)(=O)O)c3ccccc32)Nc2ccccc21 [drawing 224] | – | – | 100 | 0 | – |
| CC(=O)OCN1C(=O)/C(=C2\Nc3ccccc3C2=O)c2ccccc21 | 3 | 94 | 0 | 100 | – |
| CN(C)CCNC(=O)N1C(=O)/C(=C2\Nc3ccccc3C2=O)c2ccccc21 | 0 | 100 | 0 | 100 | – |
| O=C(O)CCC(=O)OCN1C(=O)/C(=C2\Nc3ccccc3C2=O)c2ccccc21 | 0 | 100 | 0 | 100 | – |
| CN1CCN(CCNC(=O)N2C(=O)/C(=C3\Nc4ccccc4C3=O)c3ccccc32)CC1 | 2 | 93 | 0 | 100 | – |
| CN1CCC(NC(=O)N2C(=O)/C(=C3\Nc4ccccc4C3=O)c3ccccc32)CC1=O (stereo not shown) | 0 | 100 | 0 | 100 | – |
| Cl.NCCNC(=O)N1C(=O)/C(=C2\Nc3ccccc3C2=O)c2ccccc21 | 0 | 100 | 0 | 100 | – |
| CCN(CC)CN1C(=O)/C(=C2\Nc3ccccc3C2=O)c2ccccc21 [drawing 221] | 100 | 0 | 100 | 0 | – |
| O=C1Nc2ccccc2/C1=C1/Nc2ccccc2C1=O [synthetic indirubin] | – | – | – | – | % indirubin recovered in solution ([1]; FaSSIF 24 hr, 37° C., 5 μg/mL indirubin or molar equivalent): 0.1%; Colon length versus vehicle [3]: vehicle only have a shorter colon than those treated with synthetic indirubin; Mean Indirubin Level, Colon [4]: 2.43 ng/g; Mean Indirubin Level, Lung [4]: 2.12 ng/g; Mean Indirubin Level, Plasma [4]: 0.05 ng/mL |
| O=C1/C(=C2/C(=O)N(CO)c3ccccc32)Nc2ccccc21 [drawing 219] | 13 | 87 | 100 | 0 | – |
| O=C1/C(=C2/C(=O)N(C(=O)NC3CCOCC3)c3ccccc32)Nc2ccccc21 [drawing 236] | 13 | 68 | 10 | 57 | – |
| O=C1/C(=C2/C(=O)N(C(=O)NCCNS(=O)(=O)c3ccc([N+](=O)[O-])cc3)c3ccccc32)Nc2ccccc21 | 0 | 100 | 0 | 100 | – |
| O=C1/C(=C2/C(=O)N(CN3CCCC3)c3ccccc32)Nc2ccccc21 [Compound 41] | – | – | – | – | Efficacy (percent of initial body weight, DAI score) [3]: more effective than an equimolar amount of indirubin |
| CS(=O)(=O)NCCNC(=O)N1C(=O)/C(=C2\Nc3ccccc3C2=O)c2ccccc21 | 0 | 100 | 0 | 100 | – |
| CN(C)CCCCNC(=O)N1C(=O)/C(=C2\Nc3ccccc3C2=O)c2ccccc21 | 0 | 100 | 0 | 100 | – |
